From PMC6207370 (Xenobiotica; the fate of foreign compounds in biological …, 2017)
Read-outs that look alike come from different tables or passages of the source. Marks after values point to notes of the source that are not given here.

Tests used:
[1] = Incubations with guinea pig hepatic S9; conditions: guinea pig hepatic S9; for Fm,AO Method A (fraction metabolized by AO): method A (eq. 4); for Fm,AO Method B (fraction metabolized by AO): method B (eq. 5), values > 1 assumed equal to 1
[2] = Incubations with rat hepatic S9; conditions: for CLint scaled at 1 μM: male, Sprague-Dawley, Table 1, triplicate, 2–3 experiments; for CLint scaled at 1 μM / CLHEP (hepatic clearance): rat; for CLHEP (hepatic clearance): well-stirred model from S9 CLint (+NADPH), uncorrected for fraction unbound
[3] = Incubations with mouse hepatic S9; conditions: for CLint scaled at 1 μM: male, CD-1, mouse, Table 1, triplicate, 2–3 experiments; for Fm,AO Method A (fraction metabolized by AO): method A (eq. 4); for Fm,AO Method B (fraction metabolized by AO): method B (eq. 5), values > 1 assumed equal to 1
[4] = Incubations with rhesus monkey hepatic S9; conditions: rhesus monkey hepatic S9; for Fm,AO Method A (fraction metabolized by AO): method A (eq. 4); for Fm,AO Method B (fraction metabolized by AO): method B (eq. 5), values > 1 assumed equal to 1
[5] = Incubations with minipig hepatic S9; conditions: for CLint scaled at 1 μM: male, Gottingen, minipig, Table 1, triplicate, 2–3 experiments; for Fm,AO Method A (fraction metabolized by AO): method A (eq. 4); for Fm,AO Method B (fraction metabolized by AO): method B (eq. 5), values > 1 assumed equal to 1
[6] = assay type: in vitro ADME
[7] = Incubations with human hepatic S9; conditions: for CLint scaled at 1 μM: both, human; for Fm,AO Method A (fraction metabolized by AO) / Fm,AO Method B (fraction metabolized by AO) / Fm,AO (fraction metabolized by AO): human hepatic S9; for Fm,AO Method A (fraction metabolized by AO): method A (eq. 4); for Fm,AO Method B (fraction metabolized by AO): method B (eq. 5), values > 1 assumed equal to 1; for Fm,AO (fraction metabolized by AO): methods A and B taken together (data from Table 3)
[8] = Incubations with cynomolgus monkey hepatic S9; conditions: cynomolgus monkey hepatic S9; for Fm,AO Method A (fraction metabolized by AO): method A (eq. 4); for Fm,AO Method B (fraction metabolized by AO): method B (eq. 5), values > 1 assumed equal to 1
Allometric scaling = experiment: Allometric scaling; parameters: species or system human; conditions: exponent 0.75
[9] = rat; ref Dalvie D, Zhang C, Chen W, et al. (2010); cited from earlier work
[10] = mouse; ref Dalvie D, Zhang C, Chen W, et al. (2010); cited from earlier work
[11] = cynomolgus monkey; ref Dalvie D, Zhang C, Chen W, et al. (2010); cited from earlier work

Structure (SMILES)	Fm,AO Method A (fraction metabolized by AO) [1]	Fm,AO Method B (fraction metabolized by AO) [1]	CLHEP (hepatic clearance) [2]	Fm,AO Method A (fraction metabolized by AO) ([3]; mouse hepatic S9)	Fm,AO Method B (fraction metabolized by AO) ([3]; mouse hepatic S9)	Fm,AO Method A (fraction metabolized by AO) [4]	Fm,AO Method B (fraction metabolized by AO) [4]	Fm,AO Method A (fraction metabolized by AO) ([5]; minipig hepatic S9)	Fm,AO Method B (fraction metabolized by AO) ([5]; minipig hepatic S9)	Fm,AO Method A (fraction metabolized by AO) [7]	Fm,AO Method B (fraction metabolized by AO) [7]	Fm,AO (fraction metabolized by AO) [7]	Fm,AO Method A (fraction metabolized by AO) [8]	Fm,AO Method B (fraction metabolized by AO) [8]	also measured
CCN(C(C)=O)c1cccc(-c2ccnc3c(C#N)cnn23)c1 [Zaleplon, zaleplon]	1	0.50	12.7 ± 2.10 mL/min/kg	0.22	0	0.42	0.65	0.17	0	1	0.71	≥ 0.71	1	0.70	CLint scaled at 1 μM ([2]; s9, pH 7.4, CLint (intrinsic clearance) in hepatic S9, rat hepatic S9, in the presence of NADPH): 15.6 ± 3.05 mL/min/kg; CLint scaled at 1 μM ([3]; s9, pH 7.4, CLint (intrinsic clearance) in hepatic S9, mouse hepatic S9, in the presence of NADPH): 24.4 ± 5.28 mL/min/kg; CLint scaled at 1 μM ([5]; s9, pH 7.4, CLint (intrinsic clearance) in hepatic S9, minipig hepatic S9, in the presence of NADPH): 5.55 ± 1.34 mL/min/kg; Fm,AO (fraction metabolized by AO) ([5]; minipig hepatic S9, methods A and B taken together): ≤ 0.17; Fm,AO, across species ([6]; cynomolgus monkey, rhesus monkey, and guinea pig S9): 0.42–0.70; Fm,AO, across species ([6]; mouse and minipig S9): ≤ 0.22; CLint scaled at 1 μM ([7]; s9, pH 7.4, CLint (intrinsic clearance) in hepatic S9, human hepatic S9, in the presence of NADPH, Table 1, triplicate, 2–3 experiments): 5.8 ± 1.02 mL/min/kg; CLint scaled at 1 μM ([7]; s9, pH 7.4, CLint −NADPH, human hepatic S9 without NADPH): 3.96 ± 1.35 mL/min/kg
N=C(N)NC(=O)c1cnn(-c2cccc3ncccc23)c1C1CC1 [Zoniporide]	0.84	0.97	60.8 ± 0.485 mL/min/kg	0.90	0.90	0.77	1^#	0.83	0.97	0.77	0.72	0.72–0.77	0.90	1	SSS Human Predicted S9 CLint (Allometric scaling; single-species scaling from cynomolgus monkey S9 CLint): 30.7 mL/min/kg; SSS Human Predicted S9 CLint (Allometric scaling; single-species scaling from mouse S9 CLint): 43.1 mL/min/kg; SSS Human Predicted S9 CLint (Allometric scaling; single-species scaling from rat S9 CLint): 114 mL/min/kg; CLp (plasma clearance) [9]: 237^§ mL/min/kg; CLp (plasma clearance) [10]: 298^§ mL/min/kg; CLint scaled at 1 μM ([2]; hepatic S9, pH 7.4, CLint (intrinsic clearance) in hepatic S9, rat hepatic S9, in the presence of NADPH): 466 ± 27 mL/min/kg; Fm,AO Method A (fraction metabolized by AO) ([2]; rat hepatic S9, method A (eq. 4)): 0.74; Fm,AO Method B (fraction metabolized by AO) ([2]; rat hepatic S9, method B (eq. 5), values > 1 assumed equal to 1): 0.72; Fm,AO (fraction metabolized by AO) ([2]; rat hepatic S9, methods A and B taken together (data from Table 3)): 0.72–0.74; CLint scaled at 1 μM ([3]; hepatic S9, pH 7.4, CLint (intrinsic clearance) in hepatic S9, mouse hepatic S9, in the presence of NADPH): 332 ± 11.3 mL/min/kg; Fm,AO (fraction metabolized by AO) ([3]; mouse hepatic S9, methods A and B taken together (data from Table 3)): 0.90; CLp (plasma clearance) [11]: 31^§ mL/min/kg; CLint scaled at 1 μM ([5]; hepatic S9, pH 7.4, CLint (intrinsic clearance) in hepatic S9, minipig hepatic S9, in the presence of NADPH): 23.4 ± 2.07 mL/min/kg; Fm,AO, across species ([6]; all species): > 0.70; CLint scaled at 1 μM ([7]; hepatic S9, pH 7.4, CLint (intrinsic clearance) in hepatic S9, human hepatic S9, in the presence of NADPH, Table 1, triplicate, 2–3 experiments): 17.9 ± 1.77 mL/min/kg; CLint scaled at 1 μM ([7]; hepatic S9, pH 7.4, CLint −NADPH, human hepatic S9 without NADPH): 17.1 ± 1.53 mL/min/kg; Fm,AO (fraction metabolized by AO) ([8]; methods A and B taken together (data from Table 3)): ≥ 0.90; SSS Human Predicted CLp (Single-species scaling; single-species scaling from literature cynomolgus monkey CLp): 15.2 mL/min/kg; SSS Human Predicted CLp (Single-species scaling; single-species scaling from literature mouse CLp): 39.2 mL/min/kg; SSS Human Predicted CLp (Single-species scaling; single-species scaling from literature rat CLp): 62.7 mL/min/kg
